Consider one compound from patent US10349659B2, “Plant disease control composition and plant disease control method” (SUMITOMO CHEMICAL COMPANY, LIMITED, priority 2015, dated 2019).

One assay deals with wheat leaf blight fungus. Nature of the assay: Test Example 3: growth of wheat leaf blight fungus in YBG medium, microtiter plate. The note with it: 18° C., six days, absorbance 550 nm. The format is cell-based, Mycosphaerella graminicola. As for the experimental part: The present compound 1 or the present compound 2-1 was dissolved into dimethyl sulfoxide such that each concentration of the present compound 1 or the present compound 2-1 was adjusted to one hundred fifty times as much as the concentration indicated in the below-mentioned Table 5. The resultant agent solution was dispensed into a microtiter plate (with 96 wells) in 1 μl portion thereof per well. One hundred forty nine (149) μl of YBG medium (which was prepared by dissolving 10 g of yeast extract, 10 g of Bacto Peptone, and 20 mL of glycerol into 1 L of water, followed by sterilizing the medium) was dispensed into the wells to which the agent solution(s) was/were dispensed. The plate was cultivated at 18° C. for six days, thereby allowing wheat leaf blight fungus to undergo proliferation, and the absorbance at 550 nm of each well of the micro titer plate was then measured to examine a degree of growth of the wheat leaf blight fungus (hereinafter referred to as “treated group”).
Whereas, wheat leaf blight fungus was proliferated similarly to the case of the treated group except that dimethyl sulfoxide was used instead of the agent solution, and the degree of the growth was examined (hereinafter referred to as “untreated group”). The efficacy was calculated from the respective obtained degree of growth by the below-mentioned “Equation 1”. […]

In assay [1] the test system is wheat rust fungus (Puccinia recondita). Description: Test Example 4: foliar spray of flowable formulations on wheat, wheat rust lesion area. The format is in vivo. The following applies: foliar spray on wheat one day before inoculation, lesion area after ten days at 23° C. As for the experimental part:
Five (5) parts of the present compound 1, 35 parts of a mixture of white carbon and ammonium polyoxyethylene alkyl ether sulfate (the weight ratio of 1:1) and […] of water were mixed, and the mixture was then finely-ground by a wet grinding method to obtain a flowable formulation comprising the present compound 1. Separately, the flowable formulation comprising the present compound 2-1 was prepared according to the above-mentioned similar method except that the present compound 2-1 was used instead of the present compound 1 to form a flowable formulation comprising the present compound 2-1.
Each of the above-mentioned respective flowable formulations, and the flowable formulation comprising the present compound 1 and the present compound 2-1 that was prepared according to the above-mentioned Formulation Example 3 was diluted with water such that each concentration of the respective compounds in the dilution solutions was adjusted to that indicated in Table 6, to prepare the dilution solutions, respectively.
A plastic pot was filled with soil, and thereto wheat (cultivar. Shirogane) was seeded, and the plants were grown in a greenhouse for ten days. […]
From each of the lesion area of the treated group and the untreated group, respectively, the efficacy of the treated group was calculated by the below-mentioned Equation 2. […]

As to `CC1CC(C)(C)c2cccc(NC(=O)c3cn(C)nc3C(F)F)c21` (stereo not shown) [Present compound 1], the “Efficacy (%)” value worked out at 15% with wheat leaf blight fungus (concentration in medium 0.005 ppm), 70% in the assay on wheat leaf blight fungus (concentration in medium 0.1 ppm), 56% in assay [1] (0.0005 ppm) and 68% in assay [1] (0.01 ppm).
